Source: patent US20240408100A1, “TREATMENT METHODS FOR SUBJECTS HAVING CANCER WITH A DYSREGULATED MAPK AND/OR PI3K PATHWAY” (TAIHO PHARMACEUTICAL CO., LTD., priority 2021, published 2024)
Read-outs that look alike come from different tables or passages of the source.

Key:
[1] = system: SW1573; assay: 3-day growth inhibition assay; type: cell-based; details: Homo sapiens; SW1573 (NSCLC), KRAS p.G12C, PIK3CA p.K111E; read-out: Growth inhibition (IC50: nmol/L)
Description: (§1) The IC50 values for each compound in cell lines used in a series of animal experiments evaluating the antitumor effects of Compound (1) on KRAS mutant tumor xenografts were determined by a 3-day growth inhibition assay (Table 7).

[2] = system: LS180; assay: 3-day growth inhibition assay; type: cell-based; details: Homo sapiens; LS180 (Colon), KRAS p.G12D, PIK3CA p.H1047R, PTEN p.I67K; read-out: Growth inhibition (IC50: nmol/L)
Description: as §1

[3] = system: LU65; assay: 3-day growth inhibition assay; type: cell-based; details: Homo sapiens, Lu-65; LU65 (NSCLC), KRAS p.G12C; read-out: Growth inhibition (IC50: nmol/L)
Description: as §1

[4] = system: LU65 human lung tumor xenografts; assay: antitumor effect in mice with LU65 xenograft tumors
Description: The tumor volumes and body weights of animals were recorded.

[5] = system: NF1 mutant cell lines; assay: growth inhibition assay, summary over the panel; type: cell-based; details: Homo sapiens; NF1 mutant cell lines except for MDA-MB-231 cells; read-out: IC50 value
Source text: In order to investigate the growth inhibitory effect of Compound (1) in NF1 mutant cancer cell lines, the IC50 values of growth inhibition assay were obtained and compared then in Table 2.
In this experiment, to compare the growth inhibitory effect of Compound (1) with those of MAPK and PI3K signaling inhibitors, the IC50 values of trametinib (as a MEK inhibitor), and Alpelisib (as a PI3K inhibitor) were obtained and compared.

[6] = system: AsPC-1 human pancreatic tumor xenografts; details: for T/C ratio (%): Day 22; for Tumor volume (mm^3) Day 22 Mean ± SE: qd Day 1-21, po
Description: All treatments were administered every day by oral gavage. The tumor volumes and body weights of animals were recorded.

[7] = system: T47D cells (control and NF1 knockdown); assay: immunoblotting of target inhibition and apoptosis induction; type: cell-based
Description: To investigate the mechanism of action of Compound (1) in inhibiting the growth of NF1 knockdown breast cancer cells, Compound (1), trametinib, Alpelisib, and fulvestrant were exposed to NF1-knockdown MCF7 and T47D cells at indicated final concentration for 24 hours. NF1, pPRAS40 Thr246, pYB1 Ser102, pS6RP Ser235/236, ERα, and cleaved PARP were detected by immunoblotting.

[8] = system: PTEN-mutated HEC-6 cells; assay: dose-dependent apoptosis induction; type: cell-based, human; details: HEC-6, 48 hour, compared to control

Question: Which results are given for `CC(C)(C)NCCNc1ccc(-c2nnc(C(F)(F)F)o2)nc1C1CCN(c2ncnc3c2C(C)(C)C(=O)N3)CC1` [Compound (1), 4-(4-(3-((2-(tert-butylamino)ethyl)amino)-6-(5-(trifluoromethyl)-1,3,4-oxadiazol-2-yl)pyridin-2-yl)piperidin-1-yl)-5,5-dimethyl-5H-pyrolo[2,3-d]pyrimidin-6(7H)-one]?
Answer: IC50 [1]: 139 nmol/L; IC50 [2]: 316 nmol/L; IC50 [3]: 92.9 nmol/L; Number of deaths ([4]; 80 mg/kg/day): 0; T/C ratio (%) ([4]; 80 mg/kg/day, Day 13): 75%; Tumor volume (mm^3) Day 13 Mean ± SE ([4]; 80 mg/kg/day, qd, po): 1724.3 ± 91.1 mm^3; tolerability (body weight changes) ([4]; throughout the study period): well tolerated; IC50 [5]: < 1000 nM; Number of deaths ([6]; 40 mg/kg/day): 0; T/C ratio (%) ([6]; 40 mg/kg/day): 91%; Tumor volume (mm^3) Day 22 Mean ± SE ([6]; 40 mg/kg/day): 860.1 ± 112.1 mm^3; Number of deaths ([6]; 80 mg/kg/day): 0; T/C ratio (%) ([6]; 80 mg/kg/day): 69%; Tumor volume (mm^3) Day 22 Mean ± SE ([6]; 80 mg/kg/day): 648.0 ± 51.7 mm^3; weight reduction or tolerability ([6]; mouse, in vivo): no significant changes in weight reduction or tolerability; apoptosis induction (cleaved PARP signal) ([7]; T47D NF1 knockdown cells versus control cells): remarkably higher level in NF1 knockdown cells than control cells; signals of pPRAS40, pYB1, and pS6RP (target inhibition) ([7]; T47D, control and NF1 knockdown, 24 hours, immunoblot): decreased the signals of pPRAS40, pYB1, and pS6RP in a concentration-dependent manner; levels of cleaved caspase-3 and cleaved PARP [8]: increased cleaved caspase-3 and cleaved PARP in a concentration dependent manner
